{"source": "ChEMBL document CHEMBL3352529", "about": "(J Med Chem, 2014)", "key": {"Neuraminidase [1]": {"biological_target": "T1, Neuraminidase (Influenza A virus, UniProt A5Z252)", "test": "Inhibition of Influenza A virus A/chicken/china/1220/2012(H5N1) Neuraminidase N1"}, "Neuraminidase [2]": {"biological_target": "T2, Neuraminidase (Influenza A virus, UniProt B4URF0)", "T2 sequence (B4URF0 whole entry)": "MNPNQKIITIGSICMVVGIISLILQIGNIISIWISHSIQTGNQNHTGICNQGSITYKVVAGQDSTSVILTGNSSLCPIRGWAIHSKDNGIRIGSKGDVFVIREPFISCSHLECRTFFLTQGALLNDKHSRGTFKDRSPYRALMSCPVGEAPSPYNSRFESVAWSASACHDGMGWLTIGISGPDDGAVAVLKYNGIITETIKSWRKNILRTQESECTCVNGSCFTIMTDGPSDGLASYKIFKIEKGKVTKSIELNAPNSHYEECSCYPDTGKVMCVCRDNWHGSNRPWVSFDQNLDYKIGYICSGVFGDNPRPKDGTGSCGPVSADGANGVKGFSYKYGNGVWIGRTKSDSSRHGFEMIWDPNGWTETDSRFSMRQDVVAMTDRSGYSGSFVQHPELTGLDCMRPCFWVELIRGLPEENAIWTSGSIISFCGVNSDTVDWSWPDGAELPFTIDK", "design": "species or system A/chicken/china/415/2013(H9N2)"}, "Neuraminidase [3]": {"biological_target": "T1, Neuraminidase", "test": "Inhibition of Influenza A virus H1N1 Neuraminidase N1"}, "Neuraminidase [4]": {"biological_target": "T1, Neuraminidase", "test": "Inhibition of Influenza A virus H3N2 Neuraminidase N1"}, "Neuraminidase [5]": {"biological_target": "T1, Neuraminidase", "test": "Binding affinity to Influenza A virus H5N1 Neuraminidase N1"}, "Neuraminidase [6]": {"biological_target": "T2, Neuraminidase", "test": "Binding affinity to Influenza A virus A/Paris/2590/2009 H1N1 Neuraminidase N1"}, "Neuraminidase [7]": {"biological_target": "T1, Neuraminidase", "test": "Binding affinity to Influenza A virus H3N2 Neuraminidase N1"}}, "data": [{"smiles": "CCC(CC)O[C@@H]1C=C(C(=O)O)C[C@H](N(Cc2ccc(C(C)C)cc2)C(=N)N)[C@H]1NC(C)=O", "values": [{"measurement": "IC50", "setting": "Neuraminidase [1]", "result": 1440, "unit": "nM"}, {"measurement": "IC50", "setting": "Neuraminidase [2]", "result": 2370, "unit": "nM"}]}, {"smiles": "CCC(CC)O[C@@H]1C=C(C(=O)O)C[C@H](N(Cc2ccccc2)C(=N)N)[C@H]1NC(C)=O", "values": [{"measurement": "IC50", "setting": "Neuraminidase [1]", "result": 1170, "unit": "nM"}, {"measurement": "IC50", "setting": "Neuraminidase [2]", "result": 2600, "unit": "nM"}]}, {"smiles": "CCC(CC)O[C@@H]1C=C(C(=O)O)C[C@H](N(Cc2ccccc2OC)C(=N)N)[C@H]1NC(C)=O", "values": [{"measurement": "IC50", "setting": "Neuraminidase [1]", "result": 550, "unit": "nM"}, {"measurement": "IC50", "setting": "Neuraminidase [2]", "result": 490, "unit": "nM"}]}, {"smiles": "CCC(CC)O[C@@H]1C=C(C(=O)O)C[C@H](NCc2ccccc2F)[C@H]1NC(C)=O", "values": [{"measurement": "IC50", "setting": "Neuraminidase [1]", "result": 10, "unit": "nM"}, {"measurement": "IC50", "setting": "Neuraminidase [2]", "result": 2720, "unit": "nM"}]}, {"smiles": "CCC(CC)CN(C(=N)N)[C@H]1CC(C(=O)O)=C[C@@H](OC(CC)CC)[C@@H]1NC(C)=O", "values": [{"measurement": "IC50", "setting": "Neuraminidase [1]", "result": 950, "unit": "nM"}, {"measurement": "IC50", "setting": "Neuraminidase [2]", "result": "> 5000", "unit": "nM"}]}, {"smiles": "CCC(CC)O[C@@H]1C=C(C(=O)O)C[C@H](NCCCN)[C@H]1NC(C)=O", "values": [{"measurement": "IC50", "setting": "Neuraminidase [1]", "result": "> 100", "unit": "nM"}, {"measurement": "IC50", "setting": "Neuraminidase [2]", "result": 950, "unit": "nM"}]}, {"smiles": "CCC(CC)O[C@@H]1C=C(C(=O)O)C[C@H](N(Cc2cccs2)C(=N)N)[C@H]1NC(C)=O", "values": [{"measurement": "IC50", "setting": "Neuraminidase [1]", "result": 200, "unit": "nM"}, {"measurement": "IC50", "setting": "Neuraminidase [2]", "result": 210, "unit": "nM"}]}, {"smiles": "CCC(CC)O[C@@H]1C=C(C(=O)O)C[C@H](NCc2ccccc2Cl)[C@H]1NC(C)=O", "values": [{"measurement": "IC50", "setting": "Neuraminidase [1]", "result": 3.6, "unit": "nM"}, {"measurement": "IC50", "setting": "Neuraminidase [2]", "result": 980, "unit": "nM"}]}, {"smiles": "CCC(CC)O[C@@H]1C=C(C(=O)O)C[C@H](NCc2ccccc2OC)[C@H]1NC(C)=O", "values": [{"measurement": "IC50", "setting": "Neuraminidase [1]", "result": 31, "unit": "nM"}, {"measurement": "IC50", "setting": "Neuraminidase [2]", "result": 1640, "unit": "nM"}]}, {"smiles": "CCC(CC)O[C@@H]1C=C(C(=O)O)C[C@H](NCc2ccccc2O)[C@H]1NC(C)=O", "values": [{"measurement": "IC50", "setting": "Neuraminidase [1]", "result": 21, "unit": "nM"}, {"measurement": "IC50", "setting": "Neuraminidase [2]", "result": "> 5000", "unit": "nM"}]}, {"smiles": "CCC(CC)O[C@@H]1C=C(C(=O)O)C[C@H](NCc2ccc(-c3ccccc3)cc2)[C@H]1NC(C)=O", "values": [{"measurement": "IC50", "setting": "Neuraminidase [1]", "result": 1.9, "unit": "nM"}, {"measurement": "IC50", "setting": "Neuraminidase [2]", "result": 1200, "unit": "nM"}]}, {"smiles": "CCC(CC)O[C@@H]1C=C(C(=O)O)C[C@H](NCc2ccc(-c3ccccc3)cc2-c2ccccc2)[C@H]1NC(C)=O", "values": [{"measurement": "IC50", "setting": "Neuraminidase [1]", "result": 43, "unit": "nM"}, {"measurement": "IC50", "setting": "Neuraminidase [2]", "result": 3.2, "unit": "nM"}]}, {"smiles": "CC(=O)N[C@H]1[C@H]([C@H](O)[C@H](O)CO)OC(C(=O)O)=C[C@@H]1NC(=N)NC(=O)CSc1cccc2ccccc12", "values": [{"measurement": "IC50", "setting": "Neuraminidase [3]", "result": 21, "unit": "nM"}, {"measurement": "IC50", "setting": "Neuraminidase [4]", "result": 25, "unit": "nM"}]}, {"smiles": "CCC(CC)O[C@@H]1C=C(C(=O)O)C[C@H](NCc2ccc(-c3ccccc3)cc2Cl)[C@H]1NC(C)=O", "values": [{"measurement": "IC50", "setting": "Neuraminidase [1]", "result": 11, "unit": "nM"}, {"measurement": "IC50", "setting": "Neuraminidase [2]", "result": 2020, "unit": "nM"}]}, {"smiles": "CC(=O)N[C@H]1C([C@H](O)[C@H](O)CO)OC(C(=O)O)=C(C/C=C/c2ccc(C)cc2)[C@@H]1O", "note": "(stereo partly drawn)", "values": [{"measurement": "Ki", "setting": "Neuraminidase [5]", "result": 7300, "unit": "nM"}, {"measurement": "Ki", "setting": "Neuraminidase [6]", "result": 1700, "unit": "nM"}, {"measurement": "Ki", "setting": "Neuraminidase [7]", "result": 219000, "unit": "nM"}]}, {"smiles": "CCC(CC)O[C@@H]1C=C(C(=O)O)C[C@H](NCc2ccccc2Br)[C@H]1NC(C)=O", "values": [{"measurement": "IC50", "setting": "Neuraminidase [1]", "result": 13, "unit": "nM"}, {"measurement": "IC50", "setting": "Neuraminidase [2]", "result": 1150, "unit": "nM"}]}, {"smiles": "CCC(CC)O[C@@H]1C=C(C(=O)O)C[C@H](NC(=N)N)[C@H]1NC(C)=O", "values": [{"measurement": "IC50", "setting": "Neuraminidase [1]", "result": 6.9, "unit": "nM"}, {"measurement": "IC50", "setting": "Neuraminidase [2]", "result": 6.4, "unit": "nM"}]}, {"smiles": "CCCN(C(=N)N)[C@H]1CC(C(=O)O)=C[C@@H](OC(CC)CC)[C@@H]1NC(C)=O", "values": [{"measurement": "IC50", "setting": "Neuraminidase [1]", "result": 670, "unit": "nM"}, {"measurement": "IC50", "setting": "Neuraminidase [2]", "result": "> 5000", "unit": "nM"}]}, {"smiles": "CCC(CC)O[C@@H]1C=C(C(=O)O)C[C@H](N(CCC(C)C)C(=N)N)[C@H]1NC(C)=O", "values": [{"measurement": "IC50", "setting": "Neuraminidase [1]", "result": 370, "unit": "nM"}, {"measurement": "IC50", "setting": "Neuraminidase [2]", "result": "> 5000", "unit": "nM"}]}, {"smiles": "CCC(CC)O[C@@H]1C=C(C(=O)O)C[C@H](NCc2ccc(-c3cccs3)cc2)[C@H]1NC(C)=O", "values": [{"measurement": "IC50", "setting": "Neuraminidase [1]", "result": 2.1, "unit": "nM"}, {"measurement": "IC50", "setting": "Neuraminidase [2]", "result": 3520, "unit": "nM"}]}, {"smiles": "CCC(CC)O[C@@H]1C=C(C(=O)O)C[C@H](N(CC(C)C)C(=N)N)[C@H]1NC(C)=O", "values": [{"measurement": "IC50", "setting": "Neuraminidase [1]", "result": 230, "unit": "nM"}, {"measurement": "IC50", "setting": "Neuraminidase [2]", "result": "> 5000", "unit": "nM"}]}, {"smiles": "CCC(CC)O[C@@H]1C=C(C(=O)O)C[C@H](NCC(C)C)[C@H]1NC(C)=O", "values": [{"measurement": "IC50", "setting": "Neuraminidase [1]", "result": 78, "unit": "nM"}, {"measurement": "IC50", "setting": "Neuraminidase [2]", "result": "> 5000", "unit": "nM"}]}, {"smiles": "C=CCOc1ccccc1CN[C@H]1CC(C(=O)O)=C[C@@H](OC(CC)CC)[C@@H]1NC(C)=O", "values": [{"measurement": "IC50", "setting": "Neuraminidase [1]", "result": 90, "unit": "nM"}, {"measurement": "IC50", "setting": "Neuraminidase [2]", "result": 4700, "unit": "nM"}]}, {"smiles": "CCCCCN(C(=N)N)[C@H]1CC(C(=O)O)=C[C@@H](OC(CC)CC)[C@@H]1NC(C)=O", "values": [{"measurement": "IC50", "setting": "Neuraminidase [1]", "result": 780, "unit": "nM"}, {"measurement": "IC50", "setting": "Neuraminidase [2]", "result": "> 5000", "unit": "nM"}]}, {"smiles": "CCC(CC)O[C@@H]1C=C(C(=O)O)C[C@H](N(CCCc2ccccc2)C(=N)N)[C@H]1NC(C)=O", "values": [{"measurement": "IC50", "setting": "Neuraminidase [1]", "result": 790, "unit": "nM"}, {"measurement": "IC50", "setting": "Neuraminidase [2]", "result": "> 5000", "unit": "nM"}]}, {"smiles": "CCC(CC)O[C@@H]1C=C(C(=O)O)C[C@H](NC/C=C/c2ccccc2)[C@H]1NC(C)=O", "values": [{"measurement": "IC50", "setting": "Neuraminidase [1]", "result": 14, "unit": "nM"}, {"measurement": "IC50", "setting": "Neuraminidase [2]", "result": 4020, "unit": "nM"}]}, {"smiles": "CCC(CC)O[C@@H]1C=C(C(=O)NO)C[C@H](N)[C@H]1NC(C)=O", "values": [{"measurement": "IC50", "setting": "Neuraminidase [1]", "result": "> 100", "unit": "nM"}, {"measurement": "IC50", "setting": "Neuraminidase [2]", "result": 110, "unit": "nM"}]}, {"smiles": "CCC(CC)O[C@@H]1C=C(C(=O)O)C[C@H](NCc2ccccc2OCc2ccco2)[C@H]1NC(C)=O", "values": [{"measurement": "IC50", "setting": "Neuraminidase [1]", "result": 59, "unit": "nM"}, {"measurement": "IC50", "setting": "Neuraminidase [2]", "result": 1530, "unit": "nM"}]}, {"smiles": "CCCCN[C@H]1CC(C(=O)O)=C[C@@H](OC(CC)CC)[C@@H]1NC(C)=O", "values": [{"measurement": "IC50", "setting": "Neuraminidase [1]", "result": 19, "unit": "nM"}, {"measurement": "IC50", "setting": "Neuraminidase [2]", "result": 2280, "unit": "nM"}]}, {"smiles": "CCC(CC)O[C@@H]1C=C(C(=O)NO)C[C@H](NC(=N)N)[C@H]1NC(C)=O", "values": [{"measurement": "IC50", "setting": "Neuraminidase [1]", "result": "> 100", "unit": "nM"}, {"measurement": "IC50", "setting": "Neuraminidase [2]", "result": 200, "unit": "nM"}]}, {"smiles": "CCC(CC)O[C@@H]1C=C(C(=O)O)C[C@H](N(Cc2ccc(-c3ccccc3)cc2)C(=N)N)[C@H]1NC(C)=O", "values": [{"measurement": "IC50", "setting": "Neuraminidase [1]", "result": 150, "unit": "nM"}, {"measurement": "IC50", "setting": "Neuraminidase [2]", "result": 470, "unit": "nM"}]}, {"smiles": "CCC(CC)CN[C@H]1CC(C(=O)O)=C[C@@H](OC(CC)CC)[C@@H]1NC(C)=O", "values": [{"measurement": "IC50", "setting": "Neuraminidase [1]", "result": 27, "unit": "nM"}, {"measurement": "IC50", "setting": "Neuraminidase [2]", "result": 300, "unit": "nM"}]}, {"smiles": "CCCCN(C(=N)N)[C@H]1CC(C(=O)O)=C[C@@H](OC(CC)CC)[C@@H]1NC(C)=O", "values": [{"measurement": "IC50", "setting": "Neuraminidase [1]", "result": 1140, "unit": "nM"}, {"measurement": "IC50", "setting": "Neuraminidase [2]", "result": 1480, "unit": "nM"}]}, {"smiles": "CCC(CC)O[C@@H]1C=C(C(=O)O)C[C@H](NCCCc2ccccc2)[C@H]1NC(C)=O", "values": [{"measurement": "IC50", "setting": "Neuraminidase [1]", "result": 32, "unit": "nM"}, {"measurement": "IC50", "setting": "Neuraminidase [2]", "result": "> 5000", "unit": "nM"}]}, {"smiles": "CCC(CC)O[C@@H]1C=C(C(=O)O)C[C@H](NCc2cccs2)[C@H]1NC(C)=O", "values": [{"measurement": "IC50", "setting": "Neuraminidase [1]", "result": 15, "unit": "nM"}, {"measurement": "IC50", "setting": "Neuraminidase [2]", "result": 740, "unit": "nM"}]}, {"smiles": "CCC(CC)O[C@@H]1C=C(C(=O)O)C[C@H](NCc2ccccc2)[C@H]1NC(C)=O", "values": [{"measurement": "IC50", "setting": "Neuraminidase [1]", "result": 7.1, "unit": "nM"}, {"measurement": "IC50", "setting": "Neuraminidase [2]", "result": 2440, "unit": "nM"}]}]}
